Source: PMC10586017 (ACS Omega, 2023)
Marks after values point to notes of the source that are not given here.

Key:
Assay type in all cases: cell-based
[1] = system: HepG-2 cells; experiment: cells; conditions: Homo sapiens, HepG2, read-out: mean IC50 HepG-2 ± SD
[2] = system: Caco-2 cells; experiment: cells; conditions: Homo sapiens, Caco-2, read-out: mean IC50 Caco-2 ± SD
[3] = system: MCF-7 cells; experiment: cells; conditions: Homo sapiens, MCF7, read-out: mean IC50 MCF-7 ± SD
[4] = system: Vero cells; experiment: cells; conditions: Chlorocebus sabaeus, read-out: mean IC50 Vero cells
[5] = system: β-actin
[6] = molecular target: p-eIF4E (Homo sapiens, UniProt P06730)
Sequence of p-eIF4E (P06730 whole entry): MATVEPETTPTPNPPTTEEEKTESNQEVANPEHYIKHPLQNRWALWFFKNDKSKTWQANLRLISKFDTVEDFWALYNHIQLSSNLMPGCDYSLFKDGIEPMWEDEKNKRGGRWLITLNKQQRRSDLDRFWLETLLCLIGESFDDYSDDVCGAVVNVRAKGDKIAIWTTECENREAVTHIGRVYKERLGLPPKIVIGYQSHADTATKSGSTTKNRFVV

[7] = molecular target: eIF4E (Homo sapiens, UniProt P06730)
Sequence of eIF4E (P06730 whole entry): as above

| Compound | IC50 [1] [µM] | IC50 [2] [µM] | IC50 [3] [µM] | IC50 [4] [µM] | mean protein, β-actin [5] [ng/mL] | protein ratio normalized to reference protein, β-actin [5] | change in fold, p-eIF4E [6] | inhibition (decrease) of p-eIF4E expression [6] [%] | mean protein, p-eIF4E [6] [ng/mL] | protein ratio normalized to reference protein, p-eIF4E [6] | change in fold, eIF4E [7] | decrease in eIF4E protein [7] [%] | mean protein, eIF4E [7] [ng/mL] | protein ratio normalized to reference protein, eIF4E [7] |
| --- | --- | --- | --- | --- | --- | --- | --- | --- | --- | --- | --- | --- | --- | --- |
| CO[C@H]1C[C@@H]2CC[C@@H](C)[C@@](O)(O2)C(=O)C(=O)N2CCCC[C@H]2C(=O)O[C@H]([C@H](C)C[C@@H]2CC[C@@H](O)[C@H](OC)C2)CC(=O)[C@H](C)/C=C(\C)[C@@H](O)[C@@H](OC)C(=O)[C@H](C)C[C@H](C)/C=C/C=C/C=C/1C [Rapamycin] | 47.6 ± 3.83 | 27.7 ± 1.63 | 5.62 ± 0.24 | > 100 |  |  |  |  |  |  |  |  |  |  |
| NC(=O)c1ncn([C@@H]2O[C@H](CO)[C@@H](O)[C@H]2O)n1 [Ribavirin] | 63.9 ± 3.43 | 9.78 ± 0.94 | 10.2 ± 0.15 | > 100 | 3.118 | 72.2 | 0.47 | 53 | 2.190 | 35.5* | 0.68 | 32.1 | 2.520 | 42.6* |
